Data reported in US8952024B2, “Herbicidal pyrimidone derivatives” (E I du Pont de Nemours and Company, priority 2009, dated 2015).

Legend:
Assay type in all cases: in vivo
[1] = test system: umbrella sedge (Cyperus difformis); assay: Test B flooded paddy test; conditions: for Plant response rating, Sedge, Umbrella: Flood (flooded paddy test), 13 to 15 days
Outline: (§1)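 Each compound is added to standing floodwater (3 cm above soil, maintained) in pots of 2-leaf-stage plants; greenhouse exposure lasts 13–15 d before visual comparison with controls on a 0–100 control scale.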

[2] = test system: rice (Oryza sativa); assay: Test B flooded paddy test; conditions: for Plant response rating, Rice: Flood (flooded paddy test), 13 to 15 days
Outline: as §1

[3] = test system: barnyardgrass (Echinochloa crus-galli); assay: Test B flooded paddy test; conditions: for Plant response rating, Barnyardgrass: Flood (flooded paddy test), 13 to 15 days
Outline: as §1

[4] = test system: ducksalad (Heteranthera limosa); assay: Test B flooded paddy test; conditions: for Plant response rating, Ducksalad: Flood (flooded paddy test), 13 to 15 days
Outline: as §1

[5] = test system: wheat (Triticum aestivum); assay: Test A pre-/postemergence plant response
Outline: (§2)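 Plants grown from seed in a loam soil and sand mix received test compounds both as a preemergence soil spray and, at the same time, as a postemergence spray at the one- to two-leaf stage. Injury was judged visually against untreated controls roughly ten days later, 0 meaning no effect and 100 complete control.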

[6] = test system: large crabgrass (Digitaria sanguinalis); assay: Test A pre-/postemergence plant response
Outline: as §2

[7] = test system: corn (Zea mays); assay: Test A pre-/postemergence plant response
Outline: as §2

[8] = test system: barnyardgrass (Echinochloa crus-galli); assay: Test A pre-/postemergence plant response
Outline: as §2

[9] = test system: pigweed (Amaranthus retroflexus); assay: Test A pre-/postemergence plant response
Outline: as §2

[10] = test system: velvetleaf (Abutilon theophrasti); assay: Test A pre-/postemergence plant response
Outline: as §2

[11] = test system: morningglory (Ipomoea spp.); assay: Test A pre-/postemergence plant response
Outline: as §2

[12] = test system: giant foxtail (Setaria faberii); assay: Test A pre-/postemergence plant response
Outline: as §2

[13] = test system: winter barley (Hordeum vulgare); assay: Test B postemergence plant response; conditions: Postemergence
Outline: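 Plants at the 1- to 4-leaf stage (2 to 18 cm tall), grown in pots of peat moss/vermiculite medium with wetting agent and starter nutrients, received postemergence applications of test chemicals. After 13 to 15 days in a greenhouse, injury was rated visually against untreated controls on a 0 (no effect) to 100 (complete control) scale.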

[14] = 250 g ai/ha, flooded paddy test, visual rating on 0 to 100 scale (0 no effect, 100 complete control) after 13 to 15 days
[15] = 62 g ai/ha, scale of 0 to 100 where 0 is no effect and 100 is complete control
[16] = 125 g ai/ha, scale 0 to 100, 0 is no effect, 100 is complete control
[17] = Flood, 31 g ai/ha, scale 0 to 100 (0 no effect, 100 complete control)
[18] = Postemergence, 125 g ai/ha, 0 to 100 scale where 0 is no effect and 100 is complete control
[19] = Postemergence, 500 g ai/ha, visual injury, 0 to 100 scale (0 no effect, 100 complete control), approx. ten days
[20] = Preemergence, 125 g ai/ha, 0 to 100 scale, 0 = no effect, 100 = complete control
[21] = Preemergence, 500 g ai/ha, 0 to 100 scale, 0 = no effect, 100 = complete control

For CCCCn1c(-c2cccc(F)c2)ncc(C(=O)C2=C(O)C3CCC(C3)C2=O)c1=O (stereo not shown) [Compound 237], the “Plant response rating, Flood, Sedge, Umbrella” value [1, 14] was 100, the “Plant response rating, Sedge, Umbrella” value [1, 15] was 45 and the “Plant response rating, Sedge, Umbrella” value [1, 16] was 55. The “Sedge, Umbrella plant response rating” value [1, 17] was 0, the “Plant response rating, Flood, Rice” value [2, 14] was 45 and the “Plant response rating, Rice” value [2, 15] was 0. The “Plant response rating, Rice” value [2, 16] was 0, the “Rice plant response rating” value [2, 17] was 0 and the “Plant response rating, Flood, Barnyardgrass” value [3, 14] was 30. The “Plant response rating, Barnyardgrass” value [3, 15] was 0, the “Plant response rating, Barnyardgrass” value [3, 16] was 0 and the “Barnyardgrass plant response rating” value [3, 17] was 0. For the same compound, the “Plant response rating, Flood, Ducksalad” value [4, 14] was 100, the “Plant response rating, Ducksalad” value [4, 15] was 65 and the “Plant response rating, Ducksalad” value [4, 16] was 90. The “Ducksalad plant response rating” value [4, 17] was 0, the “Plant response rating, Wheat” value [5, 18] was 20 and the “Wheat plant response rating” value [5, 19] was 70. For the same compound, the “Plant response rating, Wheat” value [5, 20] was 0, the “Plant response rating, Wheat” value [5, 21] was 30 and the “Plant response rating, Crabgrass, Large” value [6, 18] was 80. The “Crabgrass, Large plant response rating” value [6, 19] was 100, the “Plant response rating, Crabgrass, Large” value [6, 20] was 40 and the “Plant response rating, Crabgrass, Large” value [6, 21] was 100. For the same compound, the “Plant response rating, Corn” value [7, 18] was 40, the “Corn plant response rating” value [7, 19] was 80 and the “Plant response rating, Corn” value [7, 20] was 0. The “Plant response rating, Corn” value [7, 21] was 50, the “Plant response rating, Barnyardgrass” value [8, 18] was 100 and the “Barnyardgrass plant response rating” value [8, 19] was 100. For the same compound, the “Plant response rating, Barnyardgrass” value [8, 20] was 20, the “Plant response rating, Barnyardgrass” value [8, 21] was 90 and the “Plant response rating, Pigweed” value [9, 18] was 90. For the same compound, the “Pigweed plant response rating” value [9, 19] was 100, the “Plant response rating, Pigweed” value [9, 20] was 30 and the “Plant response rating, Pigweed” value [9, 21] was 100. For the same compound, the “Plant response rating, Velvetleaf” value [10, 18] was 100, the “Velvetleaf plant response rating” value [10, 19] was 100 and the “Plant response rating, Velvetleaf” value [10, 20] was 80. For the same compound, the “Plant response rating, Velvetleaf” value [10, 21] was 100, the “Plant response rating, Morningglory” value [11, 18] was 100 and the “Morningglory plant response rating” value [11, 19] was 100. For the same compound, the “Plant response rating, Morningglory” value [11, 20] was 10, the “Plant response rating, Morningglory” value [11, 21] was 80 and the “Plant response rating, Foxtail, Giant” value [12, 18] was 90. For the same compound, the “Foxtail, Giant plant response rating” value [12, 19] was 100, the “Plant response rating, Foxtail, Giant” value [12, 20] was 40 and the “Plant response rating, Foxtail, Giant” value [12, 21] was 90. The “Plant response rating, Barley” value ([13]; 31 g ai/ha, 0 to 100 scale (0 no effect, 100 complete control)) was 5, the “Plant response rating, Barley” value ([13]; 62 g ai/ha, scale 0 to 100 (0 no effect, 100 complete control)) was 15 and the “Plant response rating, Barley” value ([13]; 125 g ai/ha, scale 0 (no effect) to 100 (complete control), 13 to 15 days) was 40. The “Plant response rating, Barley” value ([13]; 250 g ai/ha, scale 0 to 100 (0 no effect, 100 complete control), 13 to 15 days) was 40.
